Like-named read-outs stand apart in the source and are kept apart here.

The text below walks through data of patent US20020055495A1, “Two-component anti-emetic composition” (priority 2000, published 2002).

For data set [1] the following is noted: cited from earlier work.
For the next data set, the system named is male Spargue-Dawley rats. Briefly: locomotor depressant effect in rats (center distance traveled, Digiscan activity monitors). The format is in vivo, rat. Particulars: metaclopramide 4 mg/kg s.c., rats pretreated with saline, 30 minutes recording. How it is done: In this example, the effect of the addition of a steroid, such as dexamethasone, on metoclopramide's locomotor depressant effects is studied. Forty-eight male Spargue-Dawley rats (250-350 g) are used for this experiment. The rats are housed in pairs and allowed free access to food and water and are not handled except for cage changes and weighing prior to testing. All experimental procedures are performed during the rat's nocturnal cycle, in dimly lit behavior rooms, except that the rats are moved to adjacent behavior rooms 30 minutes prior to testing. Eight rats are tested at a time, four rats from each condition are tested together and groups are randomly chosen to control for order sequence effects. The locomotor experiments are carried out in clear, acrylic 41×41×30 cm test chambers inside Ominitech Digiscan activity monitors (Accuscan, Inc.). Each monitor uses two arrays of infrared photocell beams (8×8 photocells, model RXYZCM-8) to detect several parameters of the rat's movement both horizontally and vertically. Data is collected in 5-min bins during testing. Dexamethasone (Sigma) is dissolved in deionized water at concentrations of 0.16, 0.4, 0.8, and 4 mg/ml. […] Each rat is then immediately placed into a locomotor testing box and the data is recorded for 30 minutes (5-min bins). The data is analyzed with a one way ANOVA for the dependent variable, center distance traveled. […]

The target in another data set is dopamine D2 receptor (Homo sapiens, UniProt P14416). Briefly: dopamine D2 receptor binding, metoclopramide alone and with dexamethasone added. How it is done:
Metoclopramide is an inhibitor of the dopamine D2 receptor which negatively effects motor function through D2 blockade causing extrapyramidal signs and symptoms (EPS). The effect of the addition of a steroid, such as dexamethasone, on metoclopramide's binding affinity at the dopamine D2 receptor is studied. […] Dexamethasone is then added in relative concentrations based on weight to achieve the following results: […]

A further data set deals with nausea and emesis. The note with it: cited from earlier work.

Sequence of dopamine D2 receptor (P14416 whole entry, species assumed): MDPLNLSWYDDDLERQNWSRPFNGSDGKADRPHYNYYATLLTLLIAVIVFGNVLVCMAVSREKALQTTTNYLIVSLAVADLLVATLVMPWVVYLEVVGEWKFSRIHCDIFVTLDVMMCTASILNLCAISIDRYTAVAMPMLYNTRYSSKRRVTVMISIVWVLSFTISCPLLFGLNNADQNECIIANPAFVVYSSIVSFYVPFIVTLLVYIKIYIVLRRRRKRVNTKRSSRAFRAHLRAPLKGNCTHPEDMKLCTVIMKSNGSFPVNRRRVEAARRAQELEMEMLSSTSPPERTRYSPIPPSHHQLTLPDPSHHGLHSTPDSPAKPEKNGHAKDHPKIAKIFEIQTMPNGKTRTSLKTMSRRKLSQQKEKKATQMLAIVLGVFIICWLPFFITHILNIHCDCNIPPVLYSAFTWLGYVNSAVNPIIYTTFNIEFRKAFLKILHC

Take `CCN(CC)CCNC(=O)c1cc(Cl)c(N)cc1OC` [metoclopramide]: the “solubility in aqueous solution” value in data set [1] (acid addition salt form) is recorded as “freely soluble in aqueous solution”. Also, in data set [1] (free base form), the solubility in water entry was “quite water insoluble”. The “center distance traveled (locomotor depressant effect)” value with male Spargue-Dawley rats is reported as “significantly reduces”. At dopamine D2 receptor (MTC 8.6 nM, alone or with DEX (0.7-17.2 nM) added at the stated DEX:MTC weight ratio), the “% Inhibition D2 Binding” value was determined as 50%. The IC50 at dopamine D2 receptor (metoclopramide alone, read-out: IC50 (the concentration that inhibits 50% of dopamine D2 binding)) is 8.6 nM.
On to `Cc1nccn1CC1CCc2c(c3ccccc3n2C)C1=O` (stereo not shown) [ondansetron], for which the anti-emetic efficacy entry with nausea and emesis (Soukop et al. 1992, repeated chemotherapy for breast cancer) is recorded as “significantly superior than MTC”.
`CN1C2CCCC1CC(NC(=O)c1nn(C)c3ccccc13)C2` (stereo not shown) [oral granisetron, granisetron]: the anti-emetic efficacy entry in the data set with nausea and emesis (Heron et al. 1994, Chevallier 1993, cisplatin-induced emesis) was “superior to MTC”.
